Data on 4 compounds can be found in ChEMBL document CHEMBL1201862, “PubChem BioAssay data set” (2004).

One experiment addresses Ion channel NompC (Danio rerio, UniProt Q7T1G6). The experiment in a line: Dose response cell-based high-throughput screening assay for agonists of the transient receptor potential channel N1 (TRPN1). [Related pubchem assays (depositor defined):AID1424, AID1448]. The format is functional.
A further experiment deals with T1, Mucolipin-3 (Homo sapiens, UniProt Q8TDD5).
T1 sequence (Q8TDD5 whole entry): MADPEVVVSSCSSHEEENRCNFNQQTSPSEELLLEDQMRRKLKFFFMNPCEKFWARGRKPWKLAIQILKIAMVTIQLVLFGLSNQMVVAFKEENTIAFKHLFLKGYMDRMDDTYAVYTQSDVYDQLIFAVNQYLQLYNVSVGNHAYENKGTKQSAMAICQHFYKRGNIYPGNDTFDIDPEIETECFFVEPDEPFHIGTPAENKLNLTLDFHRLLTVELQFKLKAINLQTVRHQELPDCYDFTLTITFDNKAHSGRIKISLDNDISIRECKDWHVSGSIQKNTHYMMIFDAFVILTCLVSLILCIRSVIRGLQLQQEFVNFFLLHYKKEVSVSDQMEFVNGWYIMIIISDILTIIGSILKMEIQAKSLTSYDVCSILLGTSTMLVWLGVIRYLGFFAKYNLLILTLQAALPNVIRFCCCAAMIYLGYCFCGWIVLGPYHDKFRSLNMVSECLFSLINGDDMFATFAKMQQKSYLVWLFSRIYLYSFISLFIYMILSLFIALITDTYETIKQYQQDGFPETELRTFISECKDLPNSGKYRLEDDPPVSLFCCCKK
Description: Fluorescence counterscreen assay for […] agonists: dose response cell-based high-throughput screening assay to identify agonists of the transient receptor potential channel ML3 (TRPML3). [Related pubchem assays: 1424, 1448 ]. The format is functional.

Experiment [1] is described as follows: luciferase reporter signal suppression in cells – H4 neuroglioma cells, luminescence, dose response (AID 1990). The format is functional, cell-based.
Experiment [2] is described as follows: Luminescence Cell-Based Dose Response HTS to Identify Inhibitors of 5'UTR Stem-Loop Driven Prion Protein mRNA Translation in H4 Neuroglioblastoma Cells. [Related pubchem assays: 1827 (Project Summary), 1813 (Primary HTS)]. The experiment is classed as functional.
Experiment [3] is described as follows: alpha-synuclein stem-loop luciferase translation blockers – H4 neuroglioma cells, luminescence, confirmation (AID 1988). The format is functional, cell-based.
Experiment [4] has as its target DNA damage-inducible transcript 3 protein (Mus musculus, UniProt P35639). The experiment is classed as functional, Cricetulus griseus.
The next experiment deals with X-box-binding protein 1 (Homo sapiens, UniProt P17861). The experiment is classed as functional, Cricetulus griseus.
Sequence of X-box-binding protein 1 (P17861 whole entry): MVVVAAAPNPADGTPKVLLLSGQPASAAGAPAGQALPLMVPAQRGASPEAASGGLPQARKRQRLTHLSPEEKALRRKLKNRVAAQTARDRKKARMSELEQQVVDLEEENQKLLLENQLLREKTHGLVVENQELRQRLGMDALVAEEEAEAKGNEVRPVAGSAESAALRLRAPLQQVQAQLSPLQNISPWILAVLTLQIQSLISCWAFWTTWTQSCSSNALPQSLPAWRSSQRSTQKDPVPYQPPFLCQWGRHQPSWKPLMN
Experiment [5] has as its target Alkaline phosphatase, placental type (Homo sapiens, UniProt P05187). Description: human placental alkaline phosphatase inhibition – biochemical, luminescence, confirmation (AID 1512). The experiment is classed as functional.
Experiment [6] concerns the target T2, Alkaline phosphatase, tissue-nonspecific isozyme (Homo sapiens, UniProt P05186).
T2 sequence (P05186 whole entry): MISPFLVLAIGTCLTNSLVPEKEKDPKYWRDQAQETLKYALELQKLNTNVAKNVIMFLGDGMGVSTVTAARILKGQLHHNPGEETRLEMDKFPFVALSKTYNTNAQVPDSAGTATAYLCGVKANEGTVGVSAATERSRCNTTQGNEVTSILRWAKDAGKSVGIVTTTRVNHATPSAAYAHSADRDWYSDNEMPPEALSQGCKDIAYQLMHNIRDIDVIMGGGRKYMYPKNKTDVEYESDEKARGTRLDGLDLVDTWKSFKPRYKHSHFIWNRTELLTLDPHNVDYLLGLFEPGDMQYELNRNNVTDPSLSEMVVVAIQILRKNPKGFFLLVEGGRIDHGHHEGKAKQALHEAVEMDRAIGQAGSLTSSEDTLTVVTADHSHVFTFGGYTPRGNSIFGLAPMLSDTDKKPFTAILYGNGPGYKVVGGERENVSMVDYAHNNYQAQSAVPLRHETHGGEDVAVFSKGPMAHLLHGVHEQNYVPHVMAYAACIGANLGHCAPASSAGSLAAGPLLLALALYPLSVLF
The experiment in a line: potency against alkaline phosphatase TNAP – biochemical, luminescent, dose response, SAR follow-up (AID 1056).

A short description of experiment [7]: Luminescence Cell-Based Dose Response HTS to Identify Activators of Luciferase Translation or Activity in H4 […] Cells. [Related pubchem assays: 1829 (Project Summary), 1814 (Primary HTS)]. The format is functional.
The test system of the next experiment is H4. Description: Luminescence Cell-Based Dose Response HTS to Identify Activators of 5'UTR Stem-Loop Driven Prion Protein mRNA Translation in H4 Neuroglioblastoma Cells. [Related pubchem assays: 1829 (Project Summary), 1814 (Primary HTS)]. The format is functional. The note with it: Homo sapiens.
Experiment [8] has as its target NACHT, LRR and PYD domains-containing protein 3 (Homo sapiens, UniProt Q96P20). Description: NALP3 inhibitors in yeast, dose response, luminescent (AID 488799). The experiment is classed as functional.
Experiment [9] deals with T3, Short transient receptor potential channel 4 (Mus musculus, UniProt Q9QUQ5).
T3 sequence (Q9QUQ5 whole entry): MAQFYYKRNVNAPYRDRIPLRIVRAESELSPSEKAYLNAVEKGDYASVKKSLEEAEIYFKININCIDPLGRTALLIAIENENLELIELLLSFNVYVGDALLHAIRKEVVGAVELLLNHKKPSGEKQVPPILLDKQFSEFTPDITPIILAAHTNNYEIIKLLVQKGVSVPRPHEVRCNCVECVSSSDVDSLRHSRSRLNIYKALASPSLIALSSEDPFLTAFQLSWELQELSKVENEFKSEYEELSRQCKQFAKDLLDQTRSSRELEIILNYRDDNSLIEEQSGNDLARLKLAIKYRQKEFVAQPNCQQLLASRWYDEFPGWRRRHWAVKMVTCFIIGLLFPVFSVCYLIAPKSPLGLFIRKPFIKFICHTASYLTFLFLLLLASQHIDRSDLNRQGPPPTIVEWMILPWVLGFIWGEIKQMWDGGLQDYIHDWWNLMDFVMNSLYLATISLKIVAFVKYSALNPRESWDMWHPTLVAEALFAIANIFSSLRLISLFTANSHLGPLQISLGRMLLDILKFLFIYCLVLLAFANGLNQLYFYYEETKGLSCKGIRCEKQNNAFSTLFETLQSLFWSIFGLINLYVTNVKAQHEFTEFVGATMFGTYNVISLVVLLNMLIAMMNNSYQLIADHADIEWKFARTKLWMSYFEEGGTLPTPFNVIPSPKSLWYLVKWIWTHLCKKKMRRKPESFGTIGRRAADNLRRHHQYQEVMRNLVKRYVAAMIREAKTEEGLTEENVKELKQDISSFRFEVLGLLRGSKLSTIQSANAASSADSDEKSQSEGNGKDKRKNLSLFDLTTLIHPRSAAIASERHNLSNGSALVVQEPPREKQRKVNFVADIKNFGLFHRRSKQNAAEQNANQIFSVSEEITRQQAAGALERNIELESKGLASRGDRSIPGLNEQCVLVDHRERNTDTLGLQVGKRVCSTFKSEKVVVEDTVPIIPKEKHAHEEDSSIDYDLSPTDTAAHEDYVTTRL
The experiment in a line: potentiation of DAMGO-evoked TRPC4 calcium signal – cell-based, HEK293 TRPC4/mu-opioid, Fluo-4 calcium, EC20 DAMGO, dose response (AID 434941).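 Further: HEK293 cells coexpressing TRPC4 and mu opioid receptor stimulated by EC20 DAMGO.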 The experiment is classed as functional.

Calls of active or inactive are those of the source.
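Wherever Absolute IC50 (XBP1) is given: confirmatory dose-response counter-screen serving a CHOP assay.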

Sequence of Alkaline phosphatase, placental type (P05187 whole entry): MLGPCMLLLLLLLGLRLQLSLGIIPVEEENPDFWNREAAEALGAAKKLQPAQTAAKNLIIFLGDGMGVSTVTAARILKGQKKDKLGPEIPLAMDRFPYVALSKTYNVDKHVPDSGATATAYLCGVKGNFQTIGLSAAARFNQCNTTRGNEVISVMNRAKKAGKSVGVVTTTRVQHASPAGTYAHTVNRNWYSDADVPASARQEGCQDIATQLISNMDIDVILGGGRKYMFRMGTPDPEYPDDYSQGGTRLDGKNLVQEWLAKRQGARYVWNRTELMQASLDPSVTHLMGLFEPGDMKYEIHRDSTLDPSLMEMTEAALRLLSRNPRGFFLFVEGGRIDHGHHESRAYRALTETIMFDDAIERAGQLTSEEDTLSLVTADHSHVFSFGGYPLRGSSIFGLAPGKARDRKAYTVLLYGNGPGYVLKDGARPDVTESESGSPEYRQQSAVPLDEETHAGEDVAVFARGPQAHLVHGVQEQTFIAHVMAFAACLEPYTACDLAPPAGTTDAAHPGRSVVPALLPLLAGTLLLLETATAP
Sequence of Ion channel NompC (Q7T1G6 whole entry): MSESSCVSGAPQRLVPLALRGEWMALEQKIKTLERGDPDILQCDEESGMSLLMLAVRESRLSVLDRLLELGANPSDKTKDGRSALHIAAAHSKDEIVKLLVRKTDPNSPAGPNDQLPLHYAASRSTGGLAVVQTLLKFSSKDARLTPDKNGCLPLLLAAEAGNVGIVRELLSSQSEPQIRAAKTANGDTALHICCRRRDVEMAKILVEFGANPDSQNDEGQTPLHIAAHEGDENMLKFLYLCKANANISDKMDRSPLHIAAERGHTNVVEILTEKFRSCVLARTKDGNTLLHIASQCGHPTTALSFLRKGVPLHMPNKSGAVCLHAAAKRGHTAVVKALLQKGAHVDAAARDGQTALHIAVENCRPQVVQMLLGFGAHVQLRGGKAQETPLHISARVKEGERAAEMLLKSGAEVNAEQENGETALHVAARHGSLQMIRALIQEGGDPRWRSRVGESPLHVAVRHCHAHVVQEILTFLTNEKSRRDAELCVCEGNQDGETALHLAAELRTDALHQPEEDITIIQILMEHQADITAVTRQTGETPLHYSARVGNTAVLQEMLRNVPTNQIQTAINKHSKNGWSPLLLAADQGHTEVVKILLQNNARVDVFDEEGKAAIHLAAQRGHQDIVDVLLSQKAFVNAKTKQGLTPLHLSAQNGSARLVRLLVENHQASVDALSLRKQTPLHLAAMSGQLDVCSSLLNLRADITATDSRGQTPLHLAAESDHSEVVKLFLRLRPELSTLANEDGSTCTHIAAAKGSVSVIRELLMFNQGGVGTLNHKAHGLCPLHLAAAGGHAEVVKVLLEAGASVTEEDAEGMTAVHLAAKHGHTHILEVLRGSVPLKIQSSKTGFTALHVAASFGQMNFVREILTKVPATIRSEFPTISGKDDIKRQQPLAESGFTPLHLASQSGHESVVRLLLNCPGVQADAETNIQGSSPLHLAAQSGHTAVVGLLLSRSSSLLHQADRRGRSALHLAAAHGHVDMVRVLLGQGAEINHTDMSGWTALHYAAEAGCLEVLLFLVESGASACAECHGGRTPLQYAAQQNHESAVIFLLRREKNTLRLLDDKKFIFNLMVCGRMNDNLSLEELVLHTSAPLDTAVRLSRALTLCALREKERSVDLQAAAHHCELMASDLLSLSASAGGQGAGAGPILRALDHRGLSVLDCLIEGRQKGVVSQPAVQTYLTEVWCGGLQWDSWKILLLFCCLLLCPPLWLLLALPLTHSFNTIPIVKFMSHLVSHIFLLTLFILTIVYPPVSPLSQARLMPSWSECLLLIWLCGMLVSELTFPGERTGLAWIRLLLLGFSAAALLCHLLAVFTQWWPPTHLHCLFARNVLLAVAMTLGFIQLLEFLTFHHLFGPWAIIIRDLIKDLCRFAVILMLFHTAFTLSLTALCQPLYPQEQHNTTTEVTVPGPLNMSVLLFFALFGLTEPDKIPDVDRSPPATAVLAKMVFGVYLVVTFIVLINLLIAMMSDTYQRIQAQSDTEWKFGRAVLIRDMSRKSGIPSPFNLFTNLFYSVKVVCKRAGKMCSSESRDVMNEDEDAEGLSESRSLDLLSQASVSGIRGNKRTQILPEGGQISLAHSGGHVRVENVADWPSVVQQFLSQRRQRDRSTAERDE
Sequence of DNA damage-inducible transcript 3 protein (P35639 whole entry): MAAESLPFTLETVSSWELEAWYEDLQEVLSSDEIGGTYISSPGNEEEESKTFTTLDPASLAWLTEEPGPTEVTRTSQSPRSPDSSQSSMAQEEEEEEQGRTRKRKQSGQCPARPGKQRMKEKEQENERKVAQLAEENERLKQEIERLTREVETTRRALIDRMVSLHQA
Sequence of NACHT, LRR and PYD domains-containing protein 3 (Q96P20 whole entry, the tested form may be a part): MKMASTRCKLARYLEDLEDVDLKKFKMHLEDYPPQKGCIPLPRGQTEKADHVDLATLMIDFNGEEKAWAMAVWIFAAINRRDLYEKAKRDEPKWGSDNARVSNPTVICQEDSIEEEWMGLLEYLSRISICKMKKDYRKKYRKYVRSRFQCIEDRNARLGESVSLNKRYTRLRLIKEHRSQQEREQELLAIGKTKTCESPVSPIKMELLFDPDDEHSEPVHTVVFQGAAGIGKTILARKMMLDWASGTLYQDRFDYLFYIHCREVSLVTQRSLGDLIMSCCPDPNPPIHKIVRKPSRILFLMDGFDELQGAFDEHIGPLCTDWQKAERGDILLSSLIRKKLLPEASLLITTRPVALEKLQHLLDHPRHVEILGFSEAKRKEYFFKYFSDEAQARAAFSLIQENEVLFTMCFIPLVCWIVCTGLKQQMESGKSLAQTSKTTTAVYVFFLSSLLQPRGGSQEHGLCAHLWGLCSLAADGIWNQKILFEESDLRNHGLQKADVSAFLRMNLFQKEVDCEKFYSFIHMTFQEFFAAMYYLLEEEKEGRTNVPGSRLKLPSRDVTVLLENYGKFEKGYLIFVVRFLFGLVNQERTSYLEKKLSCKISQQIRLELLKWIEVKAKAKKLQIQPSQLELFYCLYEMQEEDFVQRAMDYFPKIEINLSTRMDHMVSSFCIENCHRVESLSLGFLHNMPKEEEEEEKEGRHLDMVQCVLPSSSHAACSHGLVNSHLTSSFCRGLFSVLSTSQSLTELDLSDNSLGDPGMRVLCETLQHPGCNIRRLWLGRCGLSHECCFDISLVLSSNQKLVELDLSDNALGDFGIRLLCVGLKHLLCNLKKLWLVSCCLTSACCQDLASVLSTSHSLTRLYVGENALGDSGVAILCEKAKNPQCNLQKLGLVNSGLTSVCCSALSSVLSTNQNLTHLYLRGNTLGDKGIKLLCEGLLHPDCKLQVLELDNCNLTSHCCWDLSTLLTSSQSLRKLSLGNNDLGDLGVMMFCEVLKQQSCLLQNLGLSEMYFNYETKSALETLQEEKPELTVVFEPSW

For `O=c1oc2c3c4c(cc2c(C(F)(F)F)c1CCN1CCOCC1)CCCN4CCC3`, the results for the EC50 at Ion channel NompC and on Mucolipin-3 were > 3.32 µM (inactive) and 4.56 µM (active), respectively.
As for `CC(C)CCn1c(SCc2ccc(Cl)cc2)nc2c1c(=O)[nH]c(=O)n2C`, the EC50 was 14.3 µM (active) in experiment [1], 13.3 µM (active) in [2] and 11.6 µM (active) in experiment [3]. Moreover, the “Absolute IC50 (CHOP)” value in experiment [4] is below 10 µM. For the same compound, the “Absolute IC50 (XBP1)” value at X-box-binding protein 1 was 10 µM.
Regarding `O=C(Cn1ccnc1)c1ccc(O)c(O)c1`, the IC50 in experiment [5] is 5.37 µM (active); in experiment [6], > 100 µM (inactive).
On to `O=C(Nc1cccc(Cl)c1)c1cnn2cccnc12`, for which the concentration giving a half-maximal response (EC50) in [7] is 3 µM (active); in the experiment on H4, 19.1 µM (active); in [9], 1.68 µM (active). The IC50 in [8] is 8.19 µM (active).
